# Test results: patent US10563197B2, “Use of a combination of Dbait molecule and PARP inhibitors to treat cancer” (INSTITUT CURIE, priority 2015, dated 2020)
# Tests used:
# HeLa CTL KD = experiment: Cell survival, trypan blue counting; type: cell-based, human; details: 4.80 μM of AsiDNA and/or 0.1 μM of Ola; day 6 after treatment
# Protocol: (§5) Cells were grown according to the supplier's instructions. Cell lines were maintained at 37° C. in a humidified atmosphere at 5% CO2.
# (§6) AsiDNA or PARPi cytotoxicity was measured by relative survival and cell death quantification. Adherent cells were seeded in 24-well culture plates at appropriate densities and incubated 24 hours at 37° C. before AsiDNA and/or PARPi addition. Cells were harvested day 6aftertreatment, stained with 0.4% trypan blue (Sigma Aldrich, Saint-Louis, USA) and counted with a Burker chamber. Cell survival was calculated as ratio of living treated cells to living mock-treated cells. Cell death was calculated as the number of dead cells on the total number of counted cells. Additivity of the toxicity was calculated by the product of cell survivals to AsiDNA and cell survivals to PARPi.
# IM9 = experiment: Cell survival, trypan blue counting; type: cell-based, human; details: 4.80 μM of AsiDNA and/or 0.1 μM of Ola; day 6 after treatment
# Protocol: as §5, §6
# HCT116 = experiment: Cell survival, trypan blue counting; type: cell-based, human; details: 4.80 μM of AsiDNA and/or 0.1 μM of Ola; day 6 after treatment
# Protocol: as §5, §6
# HeLa BRCA1 SX = experiment: Cell survival, trypan blue counting; type: cell-based, human; details: 4.80 μM of AsiDNA and/or 0.1 μM of Ola; day 6 after treatment
# Protocol: as §5, §6
# HCC1143 = experiment: Cell death and proliferation; type: cell-based, human; details: 0.1 μM Ola, 4.8 μM AsiDNA; sensitive = difference in % dead cells higher than two-fold
# Protocol: (§1) Efficacy of Ola and AsiDNA was assessed by measuring cell death and proliferation in 12BC cell lines including 4BRCA-mutated cell lines (FIGS. 4A and B and FIG. 5). In addition, HeLa cells silenced for BRCA1 or BRCA2 genes were used as a control of BRCA mutation factor and 3 immortalized mammary cell lines (MCF10A, MCF12A and 184B5) as non-tumor controls. The concentration of the drugs (0.1 μM for Ola and 4.8 μM for AsiDNA) were chosen based on the 75-80% survival in the BC227 BRCA2^−/− mutant. […] Ola and AsiDNA treatments had no effect on the three control non-tumor cell lines.
# (§2) Cells were grown according to the supplier's instructions.
# MCF7 = experiment: Cell death and proliferation; type: cell-based, human; details: 0.1 μM Ola, 4.8 μM AsiDNA; sensitive = difference in % dead cells higher than two-fold
# Protocol: as §1, §2
# HCC70 = experiment: Cell death and proliferation; type: cell-based, human; details: 0.1 μM Ola, 4.8 μM AsiDNA; sensitive = difference in % dead cells higher than two-fold
# Protocol: as §1, §2
# BT20 = experiment: Cell death and proliferation; type: cell-based, human; details: 0.1 μM Ola, 4.8 μM AsiDNA; sensitive = difference in % dead cells higher than two-fold
# Protocol: as §1, §2
# Hut78 = experiment: Cell survival, trypan blue counting; type: cell-based, human; details: 4.80 μM of AsiDNA and/or 0.1 μM of Ola; day 6 after treatment
# Protocol: as §5, §6
# MDAMB231 tumor cells = experiment: Alkaline comet assay; type: cell-based, human; details: 24 h; AsiDNA (16 μM) or olaparib (1 μM) alone
# Protocol: (§3) To dissect this cytotoxic synergy, the inventors examined the effect of AsiDNA, Ola or both on DNA repair activities. […] Pan-nuclear phosphorylation of H2AX is thought to be involved in the inhibition of HR and NHEJ repair enzyme recruitment by AsiDNA. […] This increase could account for the efficient toxicity of the combination in MDAMB231 cells.
# (§4) Cells treated with AsiDNA (16 μM), olaparib (1 μM) or both were suspended in 0.5% low melting point agarose in DMEM and transferred onto a frosted glass microscope slide precoated with a layer of 0.5% normal melting point agarose. Slides were immersed in lysis solution [2.5 mol/L NaCl, 100 mmol/L EDTA, 10 mmol/L Tris, 1% sodium lauryl sarcosinate, 10% DMSO, 1% Triton X-100 (pH 10)] at 4jC for 1 h, placed in a electrophoresis tank containing 0.3 mol/L NaOH (pH 13) and 1 mmol/L EDTA for 40 min, electrophoresis for 25 min at 25 V (300 mA), washed with neutral buffer [400 mmol/L Tris-HCl (pH 7.5)], and stained with 20 Ag/mL ethidium bromide. The variables of the “comets” were quantified with the use of the software Comet Assay 2 (Perceptive Instrument). Triplicate slides were processed for each experimental point. The tail moment is defined as the product of the percentage of DNA in the tail and the displacement between the head and the tail of the comet.
# MCF10A non-tumor cells = experiment: Alkaline comet assay; type: cell-based, human; details: 24 h; olaparib (1 μM) alone or with AsiDNA (16 μM)
# Protocol: as §3, §4
# MCF12A = experiment: Cell survival, trypan blue counting; type: cell-based, human; details: 4.80 μM of AsiDNA and/or 0.1 μM of Ola; day 6 after treatment
# Protocol: as §5, §6
# HCC38 = experiment: Cell survival, trypan blue counting; type: cell-based, human; details: 4.80 μM of AsiDNA and/or 0.1 μM of Ola; day 6 after treatment
# Protocol: as §5, §6
# [1] = system: mutants with one repair defect (PARP1, BRCA1, BRCA2, Ku70, DNA-PKcs); experiment: Single treatments in isogenic pairs with DNA repair mutants; details: 4.80 μM AsiDNA or 0.1 μM Ola
# Protocol: To determine if the efficacy of the combination of AsiDNA with Ola was not restricted to BC, the inventors analyzed the sensitivity of different cancer cell lines including glioblastoma, cervical cancer, colon cancer, blood cancer and melanoma.
# as §5, §6
# MDAMB468 = experiment: Cell survival, trypan blue counting; type: cell-based, human
# Protocol: as §2
# BC173 = experiment: Cell survival, trypan blue counting; type: cell-based, human
# Protocol: as §2
# HCC1187 = experiment: Cell survival, trypan blue counting; type: cell-based, human
# Protocol: as §2
# MDAMB231 = experiment: Cell survival, trypan blue counting; type: cell-based, human
# Protocol: as §2
# HeLa CTL SX = experiment: Cell survival, trypan blue counting; type: cell-based, human; details: 4.80 μM of AsiDNA and/or 0.1 μM of Ola; day 6 after treatment
# Protocol: as §5, §6
# XRCC1 = experiment: XRCC1-eYFP recruitment to laser damage sites in MDAMB231 cells; type: cell-based, human; details: MDAMB231, 24 h of treatment with Ola (1 μM) and/or AsiDNA (16 μM)
# Protocol: FIG. 8: Olaparib inhibits XRCC1 recruitment to damage sites independently of AsiDNA. (A) Representative images of XRCC1-eYFP recruitment 40 secondes after laser damage and (B) kinetic of XRCC1-eYFP recruitment in MDAMB231 cells after 24 h of treatment with Ola (1 μM) and/or AsiDNA (16 μM). ns: not significant; ****: p<0.0001. These experiments were performed with a Leica SP5 confocal system, attached to a DMI6000 stand using a 63/1.4 objective, under a controlled environment (37° C., 5% CO2). All records were made using the appropriate sampling frequency (512_512 images, line average of four and zooming set to eight) and an argon laser line (514 nm for YFP) adapted to the fluorescent protein of interest. In the first step, two images were acquired within a period of 2-3 s at a laser energy setting sufficiently low not to induce any photodynamic damage. The 405-nm laser line (diode) was then set to maximum output for 100 ms and focused onto a single spot of constant size (176 nm) within the nucleus to cause a point of photo damage with a reproducible amount of energy. Recruitment of the protein of interest was then monitored by fluorescence using the same setting as for the pre-damage sequence. Laser damage was induced 24 h after treatment with AsiDNA (16 μM), olaparib (1 μM) or both. Images were captured at 2 s intervals for the following 52 s. […]
# Hep2 = experiment: Cell survival, trypan blue counting; type: cell-based, human; details: 4.80 μM of AsiDNA and/or 0.1 μM of Ola; day 6 after treatment
# Protocol: as §5, §6
# Jurkat = experiment: Cell survival, trypan blue counting; type: cell-based, human; details: 4.80 μM of AsiDNA and/or 0.1 μM of Ola; day 6 after treatment
# Protocol: as §5, §6
# [2] = 0.1 μM Ola, 4.8 μM AsiDNA, sensitive = difference in % dead cells higher than two-fold
# [3] = 4.80 μM of AsiDNA and/or 0.1 μM of Ola, day 6 after treatment
smiles,measurement,setting,value
"O=C(c1cc(Cc2n[nH]c(=O)c3ccccc23)ccc1F)N1CCN(C(=O)C2CC2)CC1 [Olaparib, 4-[(3-[(4-cyclopropylcarbonyl)piperazin-4-yl]carbonyl)-4-fluorophenyl]methyl(2H)-phthalazin-1-one]",Survival (%/NT),HeLa CTL KD,97.2 %/NT
same,Survival (%/NT),IM9,84.6 %/NT
same,Survival (%/NT),HCT116,82.9 %/NT
same,Survival (%/NT),HeLa BRCA1 SX,71.4 %/NT
same,sensitivity to treatment,HCC1143,sensitive only to AsiDNA
same,sensitivity to treatment,MCF7,resistant to both treatments
same,sensitivity to treatment,HCC70,resistant to both treatments
same,sensitivity to treatment,BT20,resistant to both treatments
same,Survival (%/NT),Hut78,85.8 %/NT
same,DNA damage (alkaline comet assay),MDAMB231 tumor cells,induced accumulation of damage
same,DNA damage (alkaline comet assay),MCF10A non-tumor cells,slight increase of DNA damage
same,Survival (%/NT),MCF12A,88.5 %/NT
same,Survival (%/NT),HCC38,66.7 %/NT
same,cytotoxicity of single treatments to DNA repair mutants,[1],essentially restricted to the BRCA mutants
same,sensitivity to treatment,MDAMB468; [2],sensitive to both treatments
same,Survival (%/NT),MDAMB468; [3],68.3 %/NT
same,sensitivity to treatment,BC173; [2],sensitive only to AsiDNA
same,Survival (%/NT),BC173; [3],94.4 %/NT
same,sensitivity to treatment,HCC1187; [2],sensitive only to Ola
same,Survival (%/NT),HCC1187; [3],61.5 %/NT
same,sensitivity to treatment,MDAMB231; [2],resistant to both treatments
same,Survival (%/NT),MDAMB231; [3],90.9 %/NT
same,IC20,"MDAMB231; Homo sapiens, MDA-MB-231, MDAMB231, PARPi dose giving 80% survival",1 µM
same,IC50,"MDAMB231; Homo sapiens, MDA-MB-231, MDAMB231, PARPi dose resulting in 50% survival",3.7 µM
same,Survival (%/NT),HeLa CTL SX,105.1 %/NT
same,XRCC1 foci recruitment,XRCC1,significantly delayed
same,Survival (%/NT),Hep2,101 %/NT
same,Survival (%/NT),Jurkat,68.4 %/NT
